The text below walks through data of patent US7569213B2, “Immunotherapeutic agent” (Stanford Rook Limited, priority 2004, dated 2009).

The structures appear in SMILES notation. Entries after “also recorded” stand apart in the source; their conditions may differ.

The subject of this test is allergen challenged allergic mice. Description: Allergic pulmonary inflammation model (ovalbumin/alum sensitized mice, intratracheal ovalbumin challenge, BAL fluid analysis). As to conditions: for total cellular infiltrate (cells recovered in the bronchoalveolar lavage fluid) / neutrophils and monocytes/macrophages at the site of inflammation (BAL fluid) / number of eosinophils recovered in the BAL fluid / IL-5 levels in the BAL fluid / IL-10 levels in the BAL fluid: ovalbumin/alum sensitized mice; for total cellular infiltrate (cells recovered in the bronchoalveolar lavage fluid): intratracheal ovalbumin challenge, compared to buffer-treated mice; for neutrophils and monocytes/macrophages at the site of inflammation (BAL fluid) / number of eosinophils recovered in the BAL fluid / IL-5 levels in the BAL fluid / IL-10 levels in the BAL fluid: ovalbumin challenge; for IL-5 levels in the BAL fluid / IL-10 levels in the BAL fluid: ELISA. Type of test: in vivo, Balb/c female mice. The text has this:
This model is used below to evaluate the effect of the compounds of the invention and to carry out comparative tests.
The prevention protocol is designed to determine the ability of treatment to prevent the development of symptoms of allergic pulmonary inflammation in subsequently sensitized mice. The therapeutic protocol is designed to determine the ability of treatment to cure symptoms of allergic pulmonary inflammation in sensitized mice.
In the prevention protocol Balb/c female mice (7-8 weeks of age, 17-20 g in weight) are treated with saline or buffer—0.001% FFA albumin in saline (as positive control) or lipid fractions of mycobacteria (taken form the sample deposited at the National Collection of Type Cultures under deposit number NCTC 11659). Three weeks after treatment all mice are sensitized intraperitoneally with 10 μg ovalbumin (OVA) and Alum (a 100 μl preparation of Alum supplied by Serva-Alu-Gel-S suspension). Sensitization is repeated after twelve days. On day 19, mice are intratracheally challenged with OVA (0.5 μg in 50 μl saline). Intratracheal antigenic challenge is repeated two days later. Twenty-four or 48 hours after the last challenge, the experiment is terminated.
In the therapeutic protocol mice are sensitized with OVA and Alum on day 0 and 12. On day 21, mice are treated as appropriate. Mice are resensitized on days 42 and 54. On days 61 and 63, mice are challenged intratracheally with OVA and the experiment terminated 24 or 48 hours later.
In some experiments, a small number of mice from the positive control group are challenged intratracheally with saline alone to determine the background level of cells infiltrating the lungs of sensitized mice in the absence of an allergic episode (negative control).
A number of end points are routinely assessed. Mice are bled by cardiac puncture and blood collected for serum analysis. The lungs are lavaged three times with 0.3 ml of sterile RPMI containing Penicillin/Streptomycin. The lavage fluid is collected and recovered cells are counted. Fifty or 100 μl of lavage fluid is used for a cytospin, which is stained (Wright-Giemsa stain), fixed in methanol and used for the morphological identification of specific cell populations of interest (eosinophils, neutrophils and monocytes/macrophages). The remaining fluid is spun down and the supernatant stored for cytokine measurement by ELISA. Spleens are pooled per treatment groups, a single cell suspension of splenocytes is obtained and placed in culture with OVA for specific antigenic stimulation and with anti-CD3 for polyclonal T cell stimulation. Supernatants are collected and stored for cytokine measurement by ELISA.
Background: An ELISA detects its analyte on a solid surface through an enzyme-linked reagent.

For the compound `CCCCC/C=C/CCCCCCCCC(=O)O` [C16:1 10-11 trans], the “total cellular infiltrate (cells recovered in the bronchoalveolar lavage fluid)” value is “reduction in the cellular infiltrate”.

Take `CCCCC=CCCCCCCCCCC(=O)OCC(COC(=O)CCCCCCCCCC=CCCCC)OC(=O)CCCCCCCCCC=CCCCC` (stereo not drawn) [C16:1 11-12]: the “total cellular infiltrate (cells recovered in the bronchoalveolar lavage fluid)” value is recorded as “failed to reduce”.

With `CCCCC/C=C\CCCCCCCCC(=O)O` [SRP312f, hexadecenoic acid (10Z)], the “neutrophils and monocytes/macrophages at the site of inflammation (BAL fluid)” value is on record as “did not result in neutrophilia or in an increase of monocytes or macrophages”; the “number of eosinophils recovered in the BAL fluid” value was “significant reduction”; the “IL-5 levels in the BAL fluid” value is “reduced”; the “IL-10 levels in the BAL fluid” value is listed as “increased”.

`CCCCC/C=C\CCCCCCCCC(=O)OCC(COC(=O)CCCCCCCC/C=C\CCCCC)OC(=O)CCCCCCCC/C=C\CCCCC` [SRP312t, tri-ester of 1,2,3-propanetriol and hexadecenoic acid (10Z)]: the “total cellular infiltrate (cells recovered in the bronchoalveolar lavage fluid)” value was “reduced the total cellular infiltrate; also recorded: greater reduction”; the “neutrophils and monocytes/macrophages at the site of inflammation (BAL fluid)” value is recorded as “did not result in neutrophilia or in an increase of monocytes or macrophages”; the “number of eosinophils recovered in the BAL fluid” value is reported as “significant reduction”; the “IL-5 levels in the BAL fluid” value was “reduced”. Further, the “IL-10 levels in the BAL fluid” value is on record as “increased”. Besides, under “single dose as low as 1 μg (doses tested 5 μg, 1 μg, 0.1 μg)”, the “total cellular infiltrate in the lungs” value was “significantly reduce”.
